From US7745424B2, “Alkane diol derivatives as therapeutic agents for the treatment of bone conditions” (The Univeristy Court of the University of Aberdeen, priority 2001, dated 2010)
Entries after “also recorded” stand apart in the source; their conditions may differ.

Experiments:
[1] = tested on: osteoclasts; assay: Murine co-culture system (osteoblast-bone marrow co-culture on dentine); type: cell-based, mice; details: for inhibition of osteoclast formation and activity: murine co-culture system
Procedure: The first model system, the murine co-culture system, studies the formation of osteoclasts_from precursors present in the bone marrow. The number of osteoclasts and the amount of dentine resorption was measured.
Osteoclast formation and activity was studied using an adaptation (see, e.g., van't Hof & Ralston, 1997) of the osteoblast-bone marrow co-culture assay originally described by Takahashi et al., 1988.
Co-Culture Methods. Co-culture (see, e.g., Van't Hof et al., 1997) is a method to study the formation of osteoclasts from their precursors. In this assay, osteoblasts were obtained from the calvaria of 2-3 day old neonatal mice. These were plated on dentine, stimulated with 1,25-dihydroxy vitamin D3 to stimulate RANKL and M-CSF expression. Early osteoclast precursors were present in the bone marrow of adult mice. The bone marrow suspension was purified to remove the red blood cells and the remainder cultured on top of the osteoblast layer. The stimulatory factors then allowed the osteoclast precursors to differentiate into mature osteoclasts. At the end of the culture osteoclasts were identified by TRAcP staining and the resorption activity was measured in the same manner as for rabbit osteoclasts.
Preparation of Dentine. The dentine was elephant ivory, preferred to bone because of its uniform surface, which facilitates easy visualisation of resorption pits. It was cut into slices of approximately 200 μm thickness using a Buehler Isomet low speed saw with a diamond wafering blade (series 15 HC). These slices were polished by hand, to a high degree, until one side was shiny. Out of these slices, discs were punched that fit the wells of a 96 well plate, using a paper puncher. Excess residues from the polish were removed by sonication. The discs were then stored in 70% ethanol until required. These discs were then dried and placed shiny side up in the wells of a 96 well plate. Cells were seeded onto the dentine. Following completion of the culture, these dentine slices were carefully removed from the plate and studied under the microscope.
Osteoblast Isolation. Briefly, osteoblasts were isolated from the calvarial bones of 2-day-old mice by sequential collagenase digestion (type I collagenase, Sigma) and cultured in αMEM supplemented with 10% FCS (foetal calf serum) and penicillin and streptomycin at 37° C. in 5% CO2.
More specifically, osteoblasts were obtained from a collagenase digestion of the calvaria (skull bones) of 2-3 day old neo-natal MF1 mice. At this stage in their development these are soft and easily removed. The calvaria from 5-6 mice were carefully dissected and washed in HBSS (Hank's balanced saline solution). The calvaria were placed in a 15 ml tube and shaken at 37° C. in 4 ml collagenase (10 mg/ml) for 10 minutes. This removes the excess unwanted tissue. The liquid was disposed of and a further 4 ml collagenase (10 mg/ml) added to the tube. The calvaria were then digested for a further 30 minutes. After this the supernatant (F1) was removed and retained. The calvaria were washed with a 2×4 ml PBS and this was added to F1. 4 ml EDTA (ethylene diamine tetraacetic acid) (4 mM in PBS) was then added to complex the calcium and allow further extraction of osteoblasts. This was shaken for 10 minutes at 37° C. The supernatant was removed and retained (F2). The calvaria were again washed with 2×4 ml HBSS and this was added to F2. The final 4 ml of collagenase (10 mg/ml) was added to the tube and this was again shaken at 37° C. for 30 minutes. […]

[2] = tested on: macrophage cell line J774; assay: MTT macrophage J774 viability assay; type: cell-based; details: MTT assay; for IC50: Mus musculus, macrophage J774 viability
Procedure: MTT (3-(4,5-dimethylthiazol-2-yl)-2,5-diphenyl tetrazolium bromide) has an […] colour and is soluble in the medium used for cell culture. The mitochondrial enzyme succinate dehydrogenase acts upon MTT in living cells to produce the insoluble purple coloured formazan. The amount of formazan produced, as measured by UV/visible spectroscopy, is proportional to the number of viable cells.
The medium was carefully removed using a needle without dislodging the crystal layer. 100 μL acidified isopropanol (4 M HCl 1:100 v/v in isopropanol) was added to each well and the purple crystals allowed to dissolve. The absorbance was measured in a plate reader at 540 nm, with 690 nm as reference. The controls were a deep purple colour, indicating a high number of live cells.
Addition of Compounds. […] These stock solutions were then diluted 100× in culture medium.

[3] = tested on: rabbit osteoclasts; assay: Rabbit osteoclast culture system; type: cell-based; details: for rabbit osteoclast numbers / resorption activity: rabbit osteoclast culture on dentine
Text: The second model system was the rabbit osteoclast system, where mature, functional osteoclasts were isolated from the long bones of rabbits and cultured on dentine slices.
Osteoclast Isolation. Osteoclasts were isolated from the long bones of 2-10 day-old rabbits, as described previously (see, e.g., reference Coxon et al., 2000). All 4 limbs were removed from the rabbits and placed in ice-cold PBS. Soft tissue and cartilage were removed and the bones transferred into fresh PBS. The bones were minced in aMEM (without FCS), using a scalpel. All the medium and fragments were transferred to a 50 ml tube, vortexed for 3×10 seconds and left to stand for 1 minute. The supernatant was removed and made up to 50 ml/rabbit with medium and FCS so as to give a final concentration of 10% FCS.
Osteoclast Plating. The cells were plated onto dentine slices in a 96 well plate, at 100 μL/well (medium: αMEM supplemented with 10% FCS and penicillin and streptomycin) and left for 4 hours to allow adherence to the dentine. After this period the medium was removed, and with it the non-adherent cells. Fresh medium was then added. The remaining population was highly enriched in osteoclasts.
Culturing. At this point, test compounds to be studied were added and the cells cultured at 37° C. in 5% CO2 for 48 hours. At the end of the culture, the osteoclasts were identified by staining for tartrate-resistant acid phosphatase (TRAcP) staining. A good number of osteoclasts in the controls was 100-200.
The resorption pit area was quantified by reflected light microscopy as described previously (see, e.g., van't Hof & Ralston, 1997) and again the results expressed as a % of the control values.

[4] = tested on: macrophage cell line J774; assay: Alamar Blue macrophage J774 viability assay; details: Mus musculus, J774, 72 h, read-out: IC50 (μM) Alamar Blue

Compound	inhibition of osteoclast formation and activity [1]	macrophage J774 viability, activity in words ([2]; range of concentrations (FIGS. 4-7))	IC50 [2]	rabbit osteoclast numbers [3]	resorption activity [3]	number of murine osteoclasts (osteoclast precursors) ([1]; compound added at Day 2, removed at Day 4, terminated at Day 10 (FIG. 15))	resorption pit area (osteoclast precursors) ([1]; compound added at Day 2, removed at Day 4, terminated at Day 10, all concentrations tested (FIG. 16))	concentrations showing a significant effect ([3]; osteoclast numbers and resorption activity)	IC50 [4]
OCCCCO [1,4-butanediol, reference compound]	no detected effect	–	–	–	–	–	–	–	–
O=C(OCCCCCCO)c1ccc(-c2ccccc2)cc1 [ABD-0054, 1,6-Hexanediol mono(biphenyl-4-carboxylic acid)Ester]	significantly inhibited	next most active	35 µM	significantly reduced	significantly reduced	–	–	–	–
O=C(OCCCCO)c1ccc(-c2ccccc2)cc1 [ABD-0056, 1,4-Butanediol mono(biphenyl-4-carboxylic acid)Ester]	significantly inhibited; also recorded: potent inhibitor	–	3.5 µM	significantly reduced	significantly reduced	even more effective against osteoclast precursor formation than against mature osteoclasts	virtually no resorption	≥ 10 µM	18 µM
